Measurements reported in patent US12129312B2, “Peptide compound, application thereof and composition containing same” (priority 2017, dated 2024).
Numbered stars: 1 amine (or outer) side, 2 acyl side, 3 side chain; on linkers, the order of the positions; unused ones are H or OH. Square brackets hold non-standard residues; d marks the D form. Peptide text beside a SMILES is read from it. * marks the point of attachment. Diphenylacetyl = O=C(C(c1ccccc1)c1ccccc1)*; X5 = O=C([C@H]1c2ccccc2CCN1[*:1])[*:2]; 2Nal = N[C@@H](Cc1ccc2ccccc2c1)C(=O)O; NMeF = CN[C@@H](Cc1ccccc1)C(=O)O; Tic = O=C(O)[C@@H]1Cc2ccccc2CN1; Gly(N-CH2CH2OH) = O=C(O)CNCCO; NMeL = CN[C@@H](CC(C)C)C(=O)O

molecular target: T1, human Chemokine like receptor 1 (Homo sapiens, UniProt Q99788); assay: Activation of Tango CMKLR1-bla U2OS cells (beta-lactamase FRET reporter); format: cell-based; conditions: not given
T1 construct: host or cells: U2OS (Tango CMKLR1-bla U2OS)
T1 sequence (Q99788 1-373): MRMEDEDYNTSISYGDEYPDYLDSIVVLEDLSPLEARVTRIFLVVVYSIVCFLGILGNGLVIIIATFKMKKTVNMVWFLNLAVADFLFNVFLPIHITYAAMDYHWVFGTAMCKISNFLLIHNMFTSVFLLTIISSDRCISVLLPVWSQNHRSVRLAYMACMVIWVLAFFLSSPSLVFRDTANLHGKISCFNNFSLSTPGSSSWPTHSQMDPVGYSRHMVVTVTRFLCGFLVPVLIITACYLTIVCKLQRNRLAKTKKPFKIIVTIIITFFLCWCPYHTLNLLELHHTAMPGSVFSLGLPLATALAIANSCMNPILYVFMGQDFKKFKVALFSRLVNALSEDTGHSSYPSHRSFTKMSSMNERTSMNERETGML
Experimental: The polypeptide sequences described above are the polypeptide sequences disclosed in the patent JP2010-229093A of BANYU PHARMA CO LTD: (D-Tyr)-Phe-Leu-Pro-(D-Ser)-Gln-Phe-(D-Ala)-Tic-Ser was used as a positive control (SEQ ID NO: 102).
The activation of the compound on Tango™ CMKLR1-bla U2OS cells (Invitrogen Cat. nos. K1551) was tested.
The activation of each compound in the above experiments on Tango™ CMKLR1-bla U2OS cells was determined as follows:
Day 1: Cell Seeding on Plate
2. The medium was removed, and the cells were washed with DPBS twice, followed by addition of 3 mL of 0.05% trypsin, and placed in a 37° C., 5% CO2 incubator (Thermo Fisher, Waltham, Massachusetts, USA) for 3-5 minutes. After the cells were rounded, 3-5 mL of medium (medium formula: DMEM 90%, Dialyzed FBS 10%, NEAA 0.1 mM, HEPES (pH 7.3) 25 mM, Penicillin 100 U/mL, Streptomycin 100 μg/mL) was added to terminate digestion.
2. The digested cells were transferred to a 15 mL centrifuge tube (430790, Corning), centrifuged at 1000 rpm for 5 minutes (5810R, Eppendorf, Hamburg, Germany), and the supernatant was discarded.
3. 7 mL of medium (DMEM+10% FBS) was added, blowed into a single cell suspension, counted by a cell counter, and adjusted the cell suspension to a desired cell density of 250,000/mL with the medium.
4. The cell suspension was seeded into a 384-well cell plate (Corning 3712) in 40 μL/well to make the number of cells 10000 cells/well, and 32 μL of medium was added to the blank control.
5. The incubation was performed overnight at 37° C. under 5% CO2.
Day 2: Dosing and Testing
1. Preparation of 200× Compound Plate
1.1 The test compound was formulated into a 10 mM working solution in DMSO.
1.2 45 μL of 10 mM test compound was added to the 2nd column of rows A to P in the Echo-384 well plate. The compound was subjected to a 3-fold dilution with Precision (30 μL of DMSO was added to the 3rd to 11th columns; 15 μL of the drug solution was pipetted from the 2nd column to the 3rd column, blown and evenly mixed; then 15 μL of the drug solution was pipetted from the 3rd column to the 4th column, blown and evenly mixed; the drugs was subjected to a 3-fold dilution to obtain 10 concentrations in total). The 1st and 12th columns of the Echo-384 well plate were supplemented with 30 μL of DMSO.
2. Preparation of Intermediate Plate
500 nL, i.e., 0.5 μL of the diluted compound (or DMSO) in the 200× compound plate was transferred into the corresponding position of V-bottom 384-well plate with Echo. 20 μL of medium was added to each well, centrifuged, shaken and evenly mixed. The concentration of the drugs in each well of the 2nd to 11th column of intermediate plate (i.e., 5× compound plate) were shown in following Table 4.
3.1 The cell plate was taken out from the incubator and observed under a microscope. The diluted compound or DMSO in the intermediate plate was added to the cell plate in 10 μL/well in the corresponding cell plate, and 40 μL of medium was pre-filled in each well.
3.2 The cells were incubated at 37° C. under 5% CO2 for 4 hours.
4.1 1 mM CCF4-AM, solution B, Solution C, and Solution D were used to prepare an appropriate amount of 6× detection solution. The LiveBLAzer™-FRET B/G Loading kit (K1095, Thermo Fisher, Waltham, Massachusetts, USA) kit containing CCF-4AM and solutionB, solutionC, and solutionD was also purchased from invitrogen (K1157, Thermo Fisher, Waltham, Massachusetts, USA).
4.2 The cells were observed under a microscope and the cell plate was equilibrated to room temperature.
4.3 6 μL of CCF-4AM dissolved solution A, 60 μL of solution B, 904 μL of solution C and 30 μL of solution D were pipetted in an EP tube, blown, and evenly mixed to obtain a 6× detection solution. The prepared 6× detection solution was pipetted to a 384-well plate in 10 μL/well.

Structure (SMILES) | EC50
CC(C)C[C@H](NC(=O)[C@H](Cc1ccccc1)NC(=O)[C@@H](Cc1ccc(O)cc1)NC(=O)C(c1ccccc1)c1ccccc1)C(=O)N1CCC[C@H]1C(=O)N[C@H](CO)C(=O)N[C@@H](CCC(N)=O)C(=O)N[C@@H](Cc1ccccc1)C(=O)N[C@H](C)C(=O)N1Cc2ccccc2C[C@H]1C(=O)N[C@@H](CO)C(=O)O [YW-78, diphenylacetyl-(D-Tyr)-Phe-Leu-Pro-(D-Ser)-Gln-Phe-(D-Ala)-Tic-Ser-OH] (Diphenylacetyl-[dY]FLP[dS]QF[dA][Tic]S-OH) | 26 nM
CC(C)C[C@@H](C(=O)N1CCC[C@H]1C(=O)N[C@H](CO)C(=O)N[C@@H](CCC(N)=O)C(=O)N[C@@H](Cc1ccc2ccccc2c1)C(=O)N[C@H](C)C(=O)N1Cc2ccccc2C[C@H]1C(=O)N[C@@H](CO)C(=O)O)N(C)C(=O)[C@H](Cc1ccccc1)NC(=O)[C@H](N)Cc1ccc(O)cc1 [YW-164, (D-Tyr)-Phe-(NMe-Leu)-Pro-(D-Ser)-Gln-2Nal-(D-Ala)-Tic-Ser-OH] (H-[dY]F[NMeL]P[dS]Q[2Nal][dA][Tic]S-OH) | 1.1 nM
CC(C)C[C@@H](C(=O)N1CCC[C@H]1C(=O)N[C@H](CO)C(=O)N[C@@H](CCC(N)=O)C(=O)N[C@@H](Cc1ccccc1)C(=O)N[C@H](C)C(=O)N1Cc2ccccc2C[C@H]1C(=O)N[C@@H](CO)C(=O)O)N(C)C(=O)[C@H](Cc1ccc2ccccc2c1)NC(=O)[C@H](N)Cc1ccc(O)cc1 [YW-200, (D-Tyr)-2Nal-(NMe-Leu)-Pro-(D-Ser)-Gln-Phe-(D-Ala)-Tic-Ser] (H-[dY][2Nal][NMeL]P[dS]QF[dA][Tic]S-OH) | 19 nM

same assay, conditions: determination by the method of Effect Embodiment 1; read-out: EC50

EC50 | Structure (SMILES)
42 nM | C[C@@H](NC(=O)[C@H](Cc1ccccc1)NC(=O)[C@H](CCC(N)=O)NC(=O)[C@@H](CO)NC(=O)[C@@H]1CCCN1C(=O)[C@H](Cc1ccccc1)N(C)C(=O)[C@H](Cc1ccccc1)NC(=O)[C@H](N)Cc1ccc(O)cc1)C(=O)N1Cc2ccccc2C[C@H]1C(=O)N[C@@H](CO)C(=O)O [YW-100, (D-Tyr)-Phe-(NMe-Phe)-Pro-(D-Ser)-Gln-Phe-(D-Ala)-Tic-Ser-OH] (H-[dY]F[NMeF]P[dS]QF[dA][Tic]S-OH)
50 nM | CC(C)C[C@H](NC(=O)[C@H](Cc1ccccc1)NC(=O)[C@H](N)Cc1ccccc1)C(=O)N1CCC[C@H]1C(=O)N[C@H](CO)C(=O)N[C@@H](CCC(N)=O)C(=O)N[C@@H](Cc1ccccc1)C(=O)N[C@H](C)C(=O)N1Cc2ccccc2C[C@H]1C(=O)N[C@@H](CO)C(=O)O [YW-97, (D-Phe)-Phe-Leu-Pro-(D-Ser)-Gln-Phe-(D-Ala)-Tic-Ser-OH] (H-[dF]FLP[dS]QF[dA][Tic]S-OH)
27 nM | CC(C)C[C@H](NC(=O)[C@H](Cc1ccccc1)NC(=O)[C@H](N)Cc1ccc(O)cc1)C(=O)N1CCC[C@H]1C(=O)N[C@H](CO)C(=O)N[C@@H](CCC(N)=O)C(=O)N[C@@H](Cc1ccccc1)C(=O)N[C@H](C)C(=O)N1CCc2ccccc2[C@@H]1C(=O)N[C@@H](CO)C(=O)O [YW-151, (D-Tyr)-Phe-Leu-Pro-(D-Ser)-Gln-Phe-(D-Ala)-D-Ti1c-Ser-OH] (H-[dY]FLP[dS]QF[dA][X5]S-OH)
5.8 nM | CC(C)C[C@@H](C(=O)N1CCC[C@H]1C(=O)N[C@H](CO)C(=O)N[C@@H](CCC(N)=O)C(=O)N[C@@H](Cc1ccccc1)C(=O)N[C@H](C)C(=O)N1Cc2ccccc2C[C@H]1C(=O)N(CCO)CC(=O)O)N(C)C(=O)[C@H](Cc1ccccc1)NC(=O)[C@H](N)Cc1ccc(O)cc1 [YW-172, (D-Tyr)-Phe-(NMe-Leu)-Pro-(D-Ser)-Gln-Phe-(D-Ala)-Tic-NHoSer-OH] (H-[dY]F[NMeL]P[dS]QF[dA][Tic][Gly(N-CH2CH2OH)]-OH)
2.7 nM | CC(C)C[C@@H](C(=O)N1CCC[C@H]1C(=O)N[C@H](CO)C(=O)N[C@@H](CCC(N)=O)C(=O)N[C@@H](Cc1ccccc1)C(=O)N[C@H](C)C(=O)N1Cc2ccccc2C[C@H]1C(=O)N[C@@H](CO)C(N)=O)N(C)C(=O)[C@H](Cc1ccccc1)NC(=O)[C@H](N)Cc1ccc(O)cc1 [YW-190, (D-Tyr)-Phe-(NMe-Leu)-Pro-(D-Ser)-Gln-Phe-(D-Ala)-Tic-Ser-NH2] (H-[dY]F[NMeL]P[dS]QF[dA][Tic]S-NH2; N-terminus assumed)
